# According to the METLIN SMRT retention time set (Domingo-Almenara et al. 2019):
# Experiment: gradient 5% acetonitrile 3 min, to 50% in 2 min, to 85% in 15 min, held 3 min, 100 µL/min
# Details: column: Zorbax Extend-C18 2.1 x 50 mm; eluents: water / acetonitrile, 0.1% formic acid
# Method in brief: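 Values are retention times taken from adduct peaks that software picked and an analyst inspected. The pure standards were run as mixtures of ~100 molecules on HPLC linked to a quadrupole time-of-flight mass spectrometer, in positive and negative ionization mode. A Zorbax Extend-C18 column (2.1 × 50 mm, 1.8 μm) was used at 100 μL/min with water and acetonitrile, each including 0.1% formic acid.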
row,RP-LC retention time [s],SMILES
1,1100,Cc1c(S(=O)(=O)N2CCC(C)CC2)c(C)n(C)c1-c1nnc(C2CCC2)o1
2,874,COc1ccc(-c2nnc(-c3cccnc3N3CCN(C(=O)c4ccc(C#N)cc4)CC3)o2)cc1
3,908,O=C1c2cccc3cccc(c23)C(=O)N1CCCC(=O)N1CCc2ccccc21
4,695,CC(C)c1cc(N2CCN(c3ccccn3)CC2)n2c(nc3ccccc32)c1C#N
5,1000,CCC(c1cccs1)N1C(=O)[C@H]2CN(S(=O)(=O)Cc3ccccc3F)C[C@H]2C1=O (stereo not given in full)
6,963,O=C(NCc1ccc(F)cc1)C1CCCN(c2nc3ccsc3c(=O)n2Cc2ccc(F)cc2)C1 (stereo not given)
7,870,CC(C)CNC(=O)CCn1c(=O)c2ccccc2n2c(=O)n(Cc3ccc(F)cc3)nc12
8,582,Cc1ccccc1CNC(=O)c1ccc2c(c1)ncn2CCN1CCCC1
9,830,COC(=O)c1cc(S(=O)(=O)N2CCCC2C(=O)Nc2ccc(F)cc2)cn1C (stereo not given)
10,806,CC(C)NC(=O)C1CCCN(c2nccn3nc(-c4ccccc4Cl)cc23)C1 (stereo not given)
11,656,O=C(NCCC1=CCCCC1)C1CCN(c2cncnc2N2CCOCC2)CC1
12,676,N=c1nc(N2CCCCC2)cc(N)n1O
13,745,COc1ccc(NC(=O)NCC23CCC=C2N(C)C(=O)CC3)cc1 (stereo not given)
14,720,O=C(Nc1ccccc1Cl)N1CCC(N2CC(F)(F)C[C@H]2COCC2CC2)CC1
15,941,COc1cccc(-c2noc(C3CCCN3C(=O)Nc3ccc(OC)cc3OC)n2)c1 (stereo not given)
16,710,CCc1ccc(NC(=O)Cn2cnc3nc(N4CCCC(C(=O)NC(C)C)C4)sc3c2=O)cc1 (stereo not given)
17,887,CCNC(=O)c1ccc2c(c1)CCCN2S(=O)(=O)c1ccc(Cl)cc1
18,726,O=C(NCc1ccccc1Cl)C1CCc2nc(N3CCOCC3)ncc2C1 (stereo not given)
19,773,O=C(Cn1c(=O)n(-c2ccc(F)cc2)c2ncccc21)NC1CCCC1
20,641,COc1cccc(CNC(=O)C2CCN(C(=O)c3n[nH]c4ccccc34)CC2)c1
21,924,Cc1cccc(NS(=O)(=O)c2ccc(-c3nnc(C4CCC4)o3)o2)c1
22,645,O=C(CCSCc1ccccc1F)N1CCN(c2ccccn2)CC1
23,846,COc1ccc(S(=O)(=O)N2CCc3c(c(CN(C(C)=O)c4ccccc4)nn3C)C2)cc1Cl
24,822,Cc1ccc(-n2c(=O)c3c(cc(C)n3C)n(CC(=O)Nc3cccc(C#N)c3)c2=O)cc1
25,707,O=C(NCc1ccc(F)cc1)C1CC(=O)N(c2n[nH]c3cccc(F)c23)C1 (stereo not given)
26,831,Cn1c(N2CCCC(C(=O)N3CCN(c4cccc(C(F)(F)F)c4)CC3)C2)cc(=O)n(C)c1=O (stereo not given)
27,1280,CCOc1nc2ccccc2nc1N1CCCC(C(=O)N2CCN(c3ccccc3)CC2)C1 (stereo not given)

row,RP-LC retention time [s],SMILES
1,727,Cc1cc(C)cc(NS(=O)(=O)c2cc3n(c2)CCN(C)C3=O)c1
2,865,CCC(C)Nc1nc2c(c(=O)n(C)c(=O)n2C)n1CC(O)COc1ccccc1 (stereo not given)
3,650,CC(C)CC(C(=O)N1CCN(c2ccccn2)CC1)N1Cc2ccccc2C1=O (stereo not given)
4,618,CCCN1C(=O)c2c(C(=O)N3CCOCC3)ncn2CC1(C)C(=O)NCc1ccc(F)cc1 (stereo not given)
5,748,COCCCNC(=O)C1CCN(C2=NS(=O)(=O)C(c3ccc(Cl)cc3)=C2C)CC1
6,654,CCCS(=O)(=O)N1CC(n2cc(C(=O)N3CCCC3)nn2)C1
7,689,O=C(c1nnc(-c2ccc(S(=O)(=O)N3CCOCC3)cc2)o1)N1CCOCC1
8,767,CCN1CCCn2cc(S(=O)(=O)NCc3ccc(Cl)cc3)cc2C1=O
9,617,CC(C)CN1C(=O)c2cccn2CC1C(=O)NCCCN1CCCC1=O (stereo not given)
10,798,Cc1c(C(=O)N2CCN(S(C)(=O)=O)CC2)nnn1-c1nc2c(s1)CCCC2
11,1250,CCOc1nc2ccccc2nc1N1CCCC(C(=O)N2CCN(c3ccccc3OC)CC2)C1 (stereo not given)
12,1010,CCCNS(=O)(=O)c1ccc(-c2cc(C(F)(F)F)on2)o1
13,801,CCCC(=O)Nc1ccc2c(c1)N(C(=O)c1cccs1)CCC2
14,722,Cc1cc(SCC(=O)N2CCCc3ccccc32)nc(C)n1
15,598,O=C(N[C@@H]1CN(Cc2ccc(Cl)cc2F)CC[C@@H]1CO)C1CC1
16,771,CN1C(=O)Cc2cc(S(=O)(=O)NCc3ccc4c(c3)CCN4C(=O)c3ccccc3)ccc21
17,631,COc1ccc(NC(=O)N(Cc2nnc3n2CCCCC3)c2ccc(OC)cc2)cc1
18,927,CCCn1c(=O)c(C)nc2cc(-c3noc(C4CC(=O)N(c5ccc(C)cc5)C4)n3)ccc21 (stereo not given)
19,623,COc1ccc2[nH]c(=O)c(CCC(=O)NCCN3CCc4ccccc4C3)cc2c1
20,860,CNC(=O)NC1CCN(c2nc3cccnc3n(Cc3ccc(C)cc3)c2=O)CC1
21,818,CCOc1ccc(NS(=O)(=O)c2cc3c4c(c2)CCC(=O)N4CCC3)cc1
22,686,Cc1cc(NC(=O)C2CCCN(c3ccc(-c4ccc(Cl)cc4)nn3)C2)no1 (stereo not given)
23,885,CCn1cc(C2=CCN(C(=O)Nc3ccc(OC)c(F)c3)CC2)c2cccnc21
24,853,Cc1csc(-c2cc(S(=O)(=O)Nc3ccc(F)cc3)cn2CC(=O)N2CCCC2)n1
25,955,CCc1nc(-c2csc(S(=O)(=O)N3CCC(C(=O)N4CCCCCC4)CC3)c2)no1
26,752,O=C(Cc1cccs1)N1CCC(c2nnc(C(F)(F)F)o2)CC1
27,729,CCc1ccc(NC(=O)C2CCN(S(=O)(=O)c3c(C)[nH]c(C)c3C(=O)N3CCCC3)CC2)cc1

# Continued, compound first:
row,SMILES,RP-LC retention time [s]
1,O=C(OCn1nnc2ccccc2c1=O)c1ccccc1[N+](=O)[O-],1030
2,Cc1cc(C(=O)CSc2nnnn2-c2ccccc2)c(C)n1Cc1ccco1,969
3,CCc1ccccc1NC(=O)Cc1c(C)n(C)c2nc(-c3ccccc3)nn2c1=O,865
4,CNC(=O)c1cccc(Nc2c(-c3ccccc3)nc3cnccn23)c1,645
5,Cc1noc(C)c1CCC(=O)N1CCCn2ccnc2C1C1CCCC1 (stereo not given),613
6,COCCc1nnc(NC(=O)c2cn(C)nc2OC)o1,558
7,Oc1ccc(-c2nc3ncccn3c2Nc2ccc3c(c2)OCCO3)cc1,610
8,O=C1[C@H]2CNC[C@H]2C(=O)N1CCc1ccccc1,604
9,Cc1ccc(-c2ccc(=O)n(CCc3nc(-c4ccc(F)cc4)no3)n2)cc1C,1100
10,Cc1ccc(NC(=O)Nc2c(-c3ccc(F)cc3)nc3ccccn23)cc1C,714
11,C=CCc1c(C)nn(-c2nc(CC(=O)Nc3nc4ccccc4[nH]3)cs2)c1C,764
12,CNC(C)Cc1ccccc1OC (stereo not given),646
13,CCOc1cccc(-c2noc(Cc3nnc(-c4cccc(OC)c4)o3)n2)c1,1080
14,COc1cccc(-c2nc(C3CCN(S(=O)(=O)c4ccc(C(C)C)cc4)CC3)no2)c1,1300
15,CCc1nccn1Cc1nc(-c2ccc(OC)c(OC)c2)no1,618
16,NC(=O)c1cccn1Cc1ccc(Cl)cc1,778
17,CC1(C(=O)Nc2ccc(F)c(Cl)c2)Oc2cccnc2NC1=O (stereo not given),730
18,CCn1ncc(C(=O)NCCn2c(C)cnc2C2CCC2)c1C,567

row,SMILES,RP-LC retention time [s]
1,OCCN1CCN(CC(O)COCc2ccc(Cl)cc2)CC1 (stereo not given),530
2,NC(=O)c1oc2ccccc2c1NC(=O)C1=COCCO1,672
3,Cc1ccc(Cn2c(=O)n(CCNC(=O)c3ccco3)c3ncccc32)cc1,760
4,COc1ccccc1-c1nc(-c2cn(Cc3ccc(F)cc3)nn2)no1,927
5,COC(=O)c1cn(CC(=O)Nc2cc(Cl)ccc2OC)c2nc(C)ccc2c1=O,780
6,CC(=O)c1ccc(NC(=O)CCn2nc(C)nc2C)cc1,557
7,Cc1ccc(-c2nc3cnccn3c2Nc2cccc(C)c2C)cc1,1040
8,COC(=O)c1cc2c(=O)n(Cc3ccc(OC)c(OC)c3)ccc2nc1C,760
9,C=C1C[C@H]2[C@@H]3CCC4=CC(=O)CC[C@@H]4[C@H]3CC[C@]2(C)[C@@]1(OC(C)=O)C(C)=O,1160
10,Nc1nc(Cl)cc(Nc2ccccc2Cl)n1,845
11,Cn1nnc2c(Nc3ccc(Br)cc3F)ncnc21,761
12,O=C(CC1CCOC2(CCN(Cc3ccsc3)CC2)C1)N1CCOCC1 (stereo not given),570
13,O=C(Nc1ccc(Cn2cncn2)cc1)c1ccc(Br)o1,708
14,COC1CCC12CCN(S(=O)(=O)c1ccc(C)cc1)CC2 (stereo not given),1020
15,CCc1cc(-c2csc(S(=O)(=O)NCc3ccc(Br)cc3)c2)on1,1020
16,Cc1ccc(S(=O)(=O)N2CCc3c(c(-c4nnc(-c5ccc(F)cc5)o4)nn3C)C2)cc1C,851
17,COc1ccc(-c2noc(CN3C(=O)C(C)Oc4ccccc43)n2)c(OC)c1 (stereo not given),956
18,CCCCNC(=O)Cn1nc(C)c2nn(-c3ccc(Cl)cc3)c(-n3cccc3)c2c1=O,1020
